The subject of series [1] is house mosquito (Cullex pipiens pallens). Nature of the series: Larvicidal test against larvae of house mosquito (Test Example 5). Particulars: 216 h, 2.5 ppb, 9th day after release, 26° C. Type of series: in vivo. As to the method:
Two hundreds ml of a diluted solution containing 2.5 ppb of each active ingredient was poured into a jar and 20 larvae of house mosquito (Cullex pipiens pallens) were released into the jar. Then, the jar was kept in a constant temperature chamber with lightening at 26° C. Larvae were fed every other day with 1-2 mg of powdered feed. On the 9th day after the release, dead insects were counted, and the mortality was calculated in the same manner as in Test Example 2. The results are shown in […]

Series [2] has as its system house fly (Musca domestica). Nature of the series: Egg hatch inhibition test by the treatment of adults of house fly (Test Example 6). The series is classed as in vivo. The settings on record: po, 100 μg/g in diet of adult females for 3 days, unhatched eggs assessed one day after collection, read-out: ratio of the egg hatch inhibition (REHI). The procedure:
Sugar and skim milk were mixed in a weight ratio of 1:1, and 2 g of the mixture was put into a Petri dish having a diameter of 5.5 cm. 0.5 ml of an acetone solution containing the active ingredient was added to the mixture in the Petri dish. After acetone evaporated, the treated mixture was thoroughly mixed, and the concentration of the active ingredient was adjusted to 100 μg/g. Twenty non-mating females of house fly (Musca domestica) were allowed to feed on the poisoned diet (the treated mixture) in a cage. After 3 days, the diet was changed to the untreated mixture, then 20 non-mating males were released into the cage for mating. On the 3rd day after release, a cup of the medium for rearing fly larvae was set in the cage for oviposition for 7 hours. The egg laid on the medium were collected and kept on the moistened filter paper in a Petri dish. One day later, unhatched eggs were assessed and the ratio of the egg hatch inhibition (REHI) was calculated by the following equation: [formula]

Series [3] deals with house fly (Musca domestica). Nature of the series: Larvicidal test against larvae of house fly (Test Example 4). Type of series: in vivo. Particulars: feed or water, 240 h, 10 ppm in feed, second instar larvae, 10th day after release, emerged adults counted. As to the method: Powder feed for test animals (manufactured by Oriental Kobo Kogyo K.K.) and bran were mixed in a weight ratio of 1:1 and pulverized, and 10 g of the mixture was packed in an ice cream cup. Each of the formulations containing the active ingredients, was dispersed in water, and 10 ml of the dispersion was added to the mixture in the ice cream cup and thoroughly mixed to adjust the concentration of the active ingredient to 10 ppm. Into the ice cream cup, 20 larvae of house fly (Musca domestica) in second instar were released, and kept in a constant temperature chamber with lightening at 26° C. On the 10th day after the release, the emerged adults were counted, and the mortality was calculated in accordance with the following equation. [formula]

Series [4] relates to two-spotted spider mite (Tetranychus urticae). Nature of the series: Miticidal test against two-spotted spider mite (Test Example 1). The series is classed as in vivo. Particulars: 120 h, 5th day after treatment, larvae and nimphs on French bean, 26° C. From the text: Each formulation containing an active ingredient was dispersed in water to obtain a dispersion of each active ingredient having a concentration of 800 or 200 ppm. Each of French bean seedlings with only on primary leaf left, was transplanted to a cup having a diameter of 7 cm and a height of 4 cm. About 30 larvae and […] of two-spotted spider mite (Tetranychus urticae) were infested to the leaf of the French bean. Then, the French bean was dipped in the dispersion having the concentration of 800 ppm or 200 ppm for about 10 seconds, then dried in air and kept in a constant temperature chamber with lightening at 26° C. On the 5th day after the treatment, dead mites were counted, and the mortality was calculated by the following equation: [formula]

Series [5] concerns common cutworm (Spodoptera litura). Nature of the series: Insecticidal test against common cutworm (Test Example 3). The series is classed as in vivo. Particulars: 168 h, 1 ppm, second or third instar larvae, 7th day after release. From the text: (§1) Each formulation containing an active ingredient was dispersed in water to obtain a dispersion of each active ingredient having a concentration of 10 ppm. Leaves of cabbage were dipped in the respective dispersions for about 10 seconds, and then dried in air. A sheet of moistened filter paper was placed in a Petri dish having a diameter of 9 cm, and the dried leaves of cabbage were put on the filter paper. Larvae of diamondback moth (Plutella xylostella) in second or third instar were released on the leaves, and the Petri dishes were covered and kept in a constant temperature chamber with lightening at a temperature of 26° C. On the 7th day after release, dead insects were counted, and the mortality was calculated by the following equation: […]
(§2) The tests were conducted in the same manner as in Test Example 2 except that larvae of common cutworm (Spodoptera litura) in second or third instar were used instead of larvae of the diamondback moth in second or third instar, and the concentration of the active ingredient was changed from 10 ppm to 800 ppm or 1 ppm.

A further series deals with Common cutworm. Nature of the series: Insecticidal test (C-value) against common cutworm (Test Example 7-I). Type of series: in vivo. Particulars: Spodoptera litura, 168 h; minimum concentration at which no less than 90% of insects are killed.
From the text: as §1, §2
(§3) In the same manner as in Test Examples 2 and 3, insecticidal tests against diamondback moth and common cutworm were conducted with respect to each compound, and the minimum concentrations at which no less than 90% of insects are killed (hereinafter referred to as C-value), were obtained.

A short description of series [6]: Residual test in soil (Test Example 7-III). The settings on record: upland volcanic ash soil, irrigated condition; 5 ppm; 20 days; 30° C. As to the method: Upland soil (volcanic ash soil) was screened through a sieve with a mesh size of 5 mm, and 20 g by dry weight basis of the soil was put into a 100 ml Erlenmeyer flask. Then, distilled water was introduced to simulate an irrigated condition with a water depth of 1 cm. An aluminum foil was put on the top of the flask, and the flask was left to stand still for 1 week in an incubator (dark place) at 30° C.
0.5 ml of a 200 ppm dispersion in acetone of each compound (100 μg) was added to the flask by means of a pipet (to a concentration of 5 ppm). The flask was closed and thoroughly shaked, and the soil attached to the closure was washed into the flask with a small amount of water. Then, the top of the flask was covered with an aluminum foil, and the flask was subjected to incubation in a growth cabinet (30° C., humidity: 60%, continuously lighted with a fluorescent lamp with 9,000 lux). 20 Days later, the total 20 g of the soil was subjected to analysis, and the remaining amount of the compound was measured.

In another series the test system is Daphnia magna Straus. Nature of the series: Acute Immobilisation Test against Daphnia magna Straus (Test Example 7-II). Type of series: in vivo. The settings on record: first instar larvae; up to 48 hours; 23±1° C.; OECD guideline; Probit method. As to the method: An acetone solution of each compound was dispersed in water to obtain test solutions having various concentrations of the active ingredient. 250 ml of each test solution was introduced into a 430 ml glass beaker. Into each beaker, 10 first instar larvae born within 24 hours were released and kept at the solution temperature of 23±1° C. The immobilisation up to 48 hours after the release of the larvae was investigated in accordance with the OECD test guideline. The test was repeated 2-3 times in two series for each concentration. The 50% immobilisation concentration (EC50, ppb) was obtained by Probit method.

The test system of the next series is Diamondback moth. Nature of the series: Insecticidal test (C-value) against diamondback moth (Test Example 7-I). Type of series: in vivo. The settings on record: Plutella xylostella, 168 h; minimum concentration at which no less than 90% of insects are killed.
From the text: as §1, §3

The source of these data is US4985449A, “N-benzoyl-N-pyridyloxy phenyl urea compounds and pesticide compositions containing them” (Ishihara Sangyo Kaisha Ltd., priority 1986, dated 1991).

SMILES strings stand for the structures. Where only a bound is given, the exact number is not on record here.

Consider `CN(C(=O)NC(=O)c1c(F)cccc1F)c1ccc(Oc2ncc(C(F)(F)F)cc2Cl)c(F)c1F` [Compound No. 2, N-[4-(3-chloro-5-trifluoromethyl-2-pyridyloxy)-2,3-difluorophenyl]-N'-(2,6, -difluorobenzoyl)-N-methylurea], for which, in [1], the mortality – broadly, the share of the test organisms that died – at 0.0025 ppm came to 90%.

`CN(C(=O)NC(=O)c1c(F)cccc1F)c1ccc(Oc2ccc(C(F)(F)F)cc2Cl)c(F)c1F` [Compound No. 5, N-[4-(2-chloro-4-trifluoromethylphenoxy)-2,3-difluorophenyl]-N'-(2,6-difluorobenzoyl)-N-methylurea]: the inhibition at 100 µg/g in [2] was found to be 100%.

As for `COC(=O)c1cc(N(C)C(=O)NC(=O)c2c(F)cccc2F)cc(C)c1Oc1ncc(C(F)(F)F)cc1Cl` [Compound No. 6], the mortality at 10 ppm in series [3] is 90%.

Molecule `CN(C(=O)NC(=O)c1c(F)cccc1F)c1ccc(Oc2ccc(C(F)(F)F)cc2Cl)cc1` [Compound No. 18, N-[4-(2-chloro-4-trifluoromethylphenoxy)phenyl]-N'-(2,6-difluorobenzoyl)-N-methylurea] returned a mortality at 200 ppm in [4] of 100%.

As for `CN(C(=O)NC(=O)c1c(F)cccc1F)c1cc(F)c(-c2ccc(C(F)(F)F)cc2)cc1F` [Compound No. 24], the mortality at 10 ppm in series [3] is 100%. Moreover, the inhibition at 100 µg/g in series [2] was determined as 100%.

Consider `CN(C(=O)NC(=O)c1c(F)cccc1F)c1ccc(-c2ccc(Br)cc2)cc1` [Compound No. 29, N-(4'-bromo-4-biphenylyl)-N'-(2,6difluorobenzoyl)-N-methylurea], for which the inhibition at 100 µg/g in series [2] was determined as 100%. The mortality at 1 ppm in [5] was 100%.

As for `CN(C(=O)NC(=O)c1c(F)cccc1F)c1ccc(-c2ccc(Cl)cc2)c(F)c1` [Compound No. 31, N-[4'-chloro-2-fluoro-4biphenylyl)-N'-(2,6-difluorobenzoyl)-N-methylurea], the inhibition at 100 µg/g in [2] came out at 100%.

For `CN(C(=O)NC(=O)c1c(F)cccc1F)c1ccc(Oc2ccc(C(F)(F)F)cc2Cl)c(Cl)c1` [compound 12, N-[3-chloro-4-(2-chloro-4-trifluoromethylphenoxy)phenyl]-N'-(2,6-difluorobenzoyl)-N-methylurea], in series [4], the mortality at 200 ppm was 100%. This molecule also yielded a mortality at 800 ppm in [4] (800 ppm) of 100%. In addition, in series [3], the mortality at 10 ppm was determined as 100%. Further, the inhibition at 100 µg/g in series [2] amounted to 100%.

In [4], `CN(C(=O)NC(=O)c1c(F)cccc1F)c1ccc(Oc2ccc(C(F)(F)F)cc2Cl)c(Cl)c1F` [compound 13, N-[3-chloro-4-(2-chloro-4-trifluoromethylphenoxy)-2-fluorophenyl]-N'-(2,6-difluorobenzoyl)-N-methylurea] had a mortality at 200 ppm of 99%. Also, the mortality at 10 ppm in series [3] stood at 100%. Besides, in series [2], the inhibition at 100 µg/g stood at 100%.

Turning to `CN(C(=O)NC(=O)c1c(F)cccc1F)c1ccc(Oc2ncc(C(F)(F)F)cc2Cl)c(Cl)c1` [compound 15, N-[3-chloro-4-(3-chloro-5-trifluoromethyl-2-pyridyloxy)-phenyl]-N'-(2,6-difluorobenzoyl)-N-methylurea], the inhibition at 100 µg/g in series [2] worked out at 100%.

In the case of `Cc1cc(Oc2ncc(C(F)(F)F)cc2Cl)ccc1N(C)C(=O)NC(=O)c1c(F)cccc1F` [compound 20, N-[4-(3-chloro-5-trifluoromethyl-2-pyridyloxy)-2-methylphenyl]-N'-(2,6-difluorobenzoyl)-N-methylurea], the inhibition at 100 µg/g in series [2] came out at 100%.

On to `CN(C(=O)NC(=O)c1c(F)cccc1F)c1ccc(Oc2ccc(C(F)(F)F)cc2Cl)c(F)c1` [drawing 47 (R=CH3)], for which the minimal effective concentration – broadly, the lowest level tested that produced the effect sought – with Common cutworm worked out at 0.04 µg/mL; in the series with Diamondback moth, 0.08 µg/mL. Besides, the “Remaining rate in the soil” value in series [6] stood at 76%. Besides, the “EC50 of Daphnia magna Straus (50% immobilisation concentration)” value (from here on “EC50 … (50% immobilisation concentration)”) in the series with Daphnia magna Straus amounted to 150 ppb.

For `O=C(NC(=O)c1c(F)cccc1F)Nc1ccc(Oc2ccc(C(F)(F)F)cc2Cl)c(F)c1` [drawing 47 (R=H), reference compound], the minimal effective concentration with Common cutworm is 0.04 µg/mL; in the series with Diamondback moth, 0.08 µg/mL. In addition, in series [6], the “Remaining rate in the soil” value is reported as 91%. Also, the “EC50 … (50% immobilisation concentration)” value in the series with Daphnia magna Straus was below 0.4 ppb.

As for `CN(C(=O)NC(=O)c1c(F)cccc1F)c1ccc(Oc2ccc(C(F)(F)F)cc2Cl)cc1` [drawing 48 (R=CH3)], the minimal effective concentration with Common cutworm and in the series with Diamondback moth was 0.02 µg/mL in each case. In series [6], the “Remaining rate in the soil” value turned out to be 49%. For the same molecule, in the series on Daphnia magna Straus, the “EC50 … (50% immobilisation concentration)” value is on record as 50 ppb.

Regarding `O=C(NC(=O)c1c(F)cccc1F)Nc1ccc(Oc2ccc(C(F)(F)F)cc2Cl)cc1` [drawing 48 (R=H), reference compound], the minimal effective concentration with Common cutworm and in the series with Diamondback moth was 0.08 µg/mL each time. The “Remaining rate in the soil” value in [6] worked out at 84%. In the series on Daphnia magna Straus, the “EC50 … (50% immobilisation concentration)” value is listed as below 0.4 ppb.

On to `CN(C(=O)NC(=O)c1c(F)cccc1F)c1ccc(-c2ccc(Br)cc2)cc1` [drawing 49 (R=CH3)], for which the minimal effective concentration is 0.04 µg/mL with Common cutworm and 0.02 µg/mL in the series with Diamondback moth. Besides, the “Remaining rate in the soil” value in series [6] was 45%. For the same molecule, the “EC50 … (50% immobilisation concentration)” value in the series on Daphnia magna Straus is 150 ppb.

`O=C(NC(=O)c1c(F)cccc1F)Nc1ccc(-c2ccc(Br)cc2)cc1` [drawing 49 (R=H), reference compound]: the minimal effective concentration with Common cutworm was 0.6 µg/mL; in the series on Diamondback moth, 0.3 µg/mL. For the same molecule, the “Remaining rate in the soil” value in series [6] was found to be 77%. Also, the “EC50 … (50% immobilisation concentration)” value in the series with Daphnia magna Straus is below 0.8 ppb.
